Assay results from US20120295838A1, “Selective poly-substituted glycine antibiotics and related compositions” (priority 2008, published 2012).
Where two headings read alike, the source gives them in different places. Square brackets hold non-standard residues; d marks the D form. Peptide text beside a SMILES is read from it. Nspe = C[C@H](NCC(=O)O)c1ccccc1; Nphe = O=C(O)CNCc1ccccc1; Nlys = NCCCCNCC(=O)O

Tests used:
[1] = test system: E. coli ATCC 35218; assay type: cell-based
Protocol: (§1) Whereas the preceding generation of molecules was designed to elucidate structure function relationships of specific molecular parameters (chirality, length, hydrophobicity, etc.), another generation compounds were designed explicitly to explore effects on selectivity. Antimicrobial activity of these compounds was tested against bacterial strains E. coli (ATTC 35218) and B. subtilis (ATTC 6633) in cation-adjusted MHB using the microdilution protocols previously described. The sequences, antimicrobial activities, hemolytic activities, and metabolic inhibitory concentrations against NIH 3T3 mouse fibroblast cells are summarized in Table 3 and the rationale of their design is described below.
(§2) Screening antibacterial assays. MICs were determined in 96-well microtiter plates in accordance with CLSI M7-A6 protocols. Peptoid solutions with 50 μL total volume were prepared using 2:1 serial dilutions. 50 i—tL of bacteria inoculum (1×10^6 CFU/mL) prepared in cation-adjusted Mueller-Hinton broth (CAMHB) was added to test wells. Control wells contained 100 μL MHB (no growth) or 50 μL inoculums with 50 μL MHB with no peptoid. […] Reported values were reproducible over three experiments, each containing two parallel trials.
(§3) Antibacterial Assays for Compositions. MICs were determined according to CLSI M7-A6 protocols in a 96-well microtiter plate. In test wells, 50 μL bacterial inoculum (1×10^6 CFU/ml) in cation-adjusted Mueller-Hinton broth (CAMHB) was added to 50 μL peptoid solution in CAMHB (prepared by 1:2 serial dilutions). Positive controls contained 50 μL inoculum and 50 μL CAMHB without peptoid. […] MIC values reported were reproducible between three independent experimental replicates, each consisting of two parallel trials.

[2] = MTS assay, NIH 3T3 cells; assay type: cell-based, mouse; conditions: mouse, NIH 3T3 fibroblast cells
Protocol: (§4) The potencies of all compounds were determined against representative Gram-negative (E. coli ATCC 35218) and Gram-positive (B. subtilis ATCC 6633) biosafety level 1 (BSL1) organisms. In addition to hemolytic activity, the conventional measure of toxicity to mammalian cells, the effect of each ampetoid on NIH 3T3 mouse fibroblast cells was determined using the MTS tetrazolium salt-based colorimetric assay. While hemolysis measures the degree to which erythrocytes are lysed, the MTS assay indirectly quantifies the extent to which cellular metabolic activity is inhibited.
(§5) MTS assays. NIH/3T3 cells (ATCC Corporation) cultured at 37° C. and 5% CO2 in complete Dulbecco's modified eagle's media (CDMEM) supplemented with 1% sodium pyruvate, 1% penicillin-streptomycin, 1.5 g/L NaHCO3, and 10% fetal bovine serum. Cells were seeded at a density of 5,000 cells per well for NIH/3T3 cells in 96-well plates (100 μl total volume). A peptoid solution plate (100 μL total volume per well) was prepared by serial dilution of aqueous peptoid stock solution in Hank's balanced salt solution (HBSS) media. The day-old cell monolayers were washed with HBSS and media was replaced with 100 μL HBSS. The contents of the peptoid solution plate were transferred onto corresponding wells of the cell monolayer plate, and 40 μL MTS reagent (Promega, Inc.) was added to each well. After incubating for 3 hours at 37° C., absorbance at 490 nm was determined. […] The average of six replicates is reported.

[3] = test system: NIH 3T3 mouse fibroblast cells; test: MTS assay, NIH 3T3 cells; assay type: cell-based
Protocol: as §4, §5

[4] = test system: human erythrocytes; test: Hemolysis assay; assay type: cell-based
Protocol: (§6) Hemolysis assays. Erythrocytes were isolated from freshly drawn, heparanized human blood and resuspended to 20 vol % in PBS (pH 7.4). In a 96-well microtiter plate, 100 μL erythrocyte suspension was added to 100 uL peptoid solution in PBS (prepared by 1:2 serial dilutions), or 100 μL PBS in the case of negative controls. 100% hemolysis wells contained 100 μL, blood cell suspension with 100 μL 0.2 vol % Triton X-100. The plate was incubated for 1 h at 37° C., then each well was diluted with 1504 PBS. The plate was then centrifuged at 1200 g for 15 min, 100 μL of the supernatant from each well transferred to a fresh microtiter plate, and A350 measured.
Hemolysis assays. Erythrocytes were isolated from freshly drawn, heparanized human blood and resuspended in PBS (pH 7.4) to make a 20% volume suspension. Peptoid solutions were prepared by serial dilution (2:1) in a 96-well microtiter plate. For test wells, 100 μLL of erythrocyte suspension was added to 100 μL of peptoid solution in PBS; PBS without peptoid was used as the negative control and 0.2 vol % Triton X-100 as the positive control that indicates 100% hemolysis. After 1 hour incubation at 37° C., each well was diluted with 150 μL PBS. Plates were then centrifuged at 1,200×g for 15 minutes to pellet the cells. 30 μL of the supernatant from each well were transferred to the corresponding well of a second 96-well plate that contains 70 μL PBS.
as §6, with “assays for Compositions.” for “assays.”, “100” for “100 uL”, “μL” for “μL,”, “150 μL” for “1504”, “1200g” for “1200 g”

[5] = test system: B. subtilis ATCC 6633; assay type: cell-based
Protocol: as §1, §2, §3

[6] = RP-HPLC solvent composition at elution as measure of molecular hydrophobicity; assay type: physicochemical; conditions: Table 8; gradient 5 to 95% ACN over 45 min, C18 column, 0.2 ml/min; average of three replicates
Source text: An initial set of 15 ampetoid analogs was synthesized to determine whether peptoids are affected by structural and sequence modifications in a manner consistent with AMP activities. The designs for ampetoids in this library were derived from two antibacterial and selective amphipathic dodecamers, 1 and 2. Peptoid 1 [H-(Nlys-Nspe-Nspe)4-NH2] is composed of 2/3 Nspe, the peptoid analog of phenylalanine, and 1/3 Mys, the peptoid analog of lysine (see FIG. 1 for the structures of representative peptoid monomers and corresponding N-substituents). Peptoid 2 [H-(Mys-Nssb-Nspe)4-NH2] contains 1/3 isoleucine-like Nssb monomers in place of Nspe. The variant sequences were designed to effect changes in chirality, length, hydrophobicity, charge, and amphipathicity. All of these compounds were tested for antibacterial activity against representative BSL1 Gram-negative (E. coli JM109) and Gram-positive (B. subtilis BR151) bacterial strains. As an initial measure of selectivity, the lytic activity of the peptoids was determined against human erythrocytes. Table 1 summarizes the sequences synthesized, the solvent composition at RP-HPLC elution as a relative measure of molecular hydrophobicity, and antibacterial and hemolytic activities.
Following synthesis, peptoid oligomers can be cleaved from the resin, simultaneously removing the tert-butoxycarbonyl (Boc) protecting group from Mys residues, by treatment with 10 ml 2,2,2-trifluoroacetic acid (TFA)/triisopropylsilane/H2O (95:2.5:2.5 by volume) for 30 min. The cleavage mixture is then diluted with 25 ml 50% aqueous acetonitrile, frozen, and lyophilized. Dilution and lyophilization is repeated twice more in order to remove excess TFA. Subsequent to cleavage, peptoids are each purified to >97% homogeneity by preparative scale reversed-phase HPLC using a Waters Prep LC 4000 system, with Waters 2487 dual-wavelength UV detection, and gradient elution (solvent A, 0.1 vol % trifluoroacetic acid (TFA) in water; solvent B, 0.1 vol % TFA in acetonitrile) through a Vydac (Hysperia, Calif.) 214TP101550 C4 peptide/protein column (10-15 μm, 300 Å, 5×25 cm). Following prep HPLC, peptoid purities and crude yields were determined from analytical scale HPLC, performed with a Waters 2695 Separations Module with a Waters 2487 dual-wavelength UV detector and gradient elution (solvent A, 0.1 vol % TFA in water; solvent B, 0.1 vol % TFA in acetonitrile) through a Vydac C4 214TP53 peptide/protein column (5 μm, 300 Å, 3.2×250 mm). The precise gradient employed for HPLC depended on the identity and hydrophobicity of the oligomer in question. All analytical HPLC was performed at 0.5 ml/min flow and 58° C. Preparative HPLC was performed at 50 ml/min flow and room temperature.
Compound synthesis and purification. Peptoids were synthesized using an ABI 433A peptide synthesizer (Applied Biosystems, Inc.) on Rink amide MBHA resin (Novabiochem, Inc.) using the submonomer approach^3. Briefly, bromoacetic acid, activated by diisopropylcarbodiimide was used to form a bromocetylated intermediate on the terminal amide group. Bromide was then substituted with the desired primary amine through SN2 displacement to build the peptoid chain. The amines used in peptoid synthesis include benzylamine, octadecylamine, (s)-(+)-2-amino-3-methylbutane, (s)-α-methylbenzylamine, (r)-(α-methylbenzylamine (all purchased from Sigma-Aldrich), and N-tert-butoxycarbonyl-1,4 diaminobutane (Mys) that was made using a published procedure^83. Resin-bound peptoids were then exposed to a mixture of trifluoroacetic acid (TFA): triisopropylsilane:water (95:2.5:2.5, v:v:v) for ten minutes to cleave peptoids from the solid phase. Peptoids were purified by reversed-phase HPLC (RP-HPLC) (Waters Corporation) using a C18 column and a linear acetonitrile/water gradient. A final purity greater than 97% as measured by analytical RP-HPLC (Waters Corporation) was achieved, and the identity of each molecule was checked using electrospray ionization mass spectrometry. […]

SMILES: C[C@@H](c1ccccc1)N(CC(N)=O)C(=O)CN(C(=O)CN(CCCCN)C(=O)CN(Cc1ccccc1)C(=O)CN(Cc1ccccc1)C(=O)CN(CCCCN)C(=O)CN(C(=O)CN(C(=O)CN(CCCCN)C(=O)CN(Cc1ccccc1)C(=O)CN(Cc1ccccc1)C(=O)CNCCCCN)[C@@H](C)c1ccccc1)[C@@H](C)c1ccccc1)[C@@H](C)c1ccccc1 [1-Npm2,3,8,9, H-(Nlys-Npm-Npm-Nlys-Nspe-Nspe)2-NH2]
- E. coli MIC ([1]; ATCC 35218): 6.3 µM
- CC50 at 3 h [2]: 15 µM
- ID50 [3]: 15 µM

SMILES: C[C@@H](c1ccccc1)N(CC(=O)N(CC(=O)N(CCCCN)CC(=O)N(CC(=O)N(CC(=O)N(CCCCN)CC(=O)N(CC(=O)N(CC(=O)N(CCCCN)CC(=O)N(CC(=O)N(CC(N)=O)Cc1ccccc1)Cc1ccccc1)Cc1ccccc1)Cc1ccccc1)Cc1ccccc1)Cc1ccccc1)Cc1ccccc1)C(=O)CNCCCCN [1ach-Nspe2, H-(Nlys-Nspe-Npm)-(Nlys-Npm-Npm)3-NH2] (H-[Nlys][Nspe][Nphe][Nlys][Nphe][Nphe][Nlys][Nphe][Nphe][Nlys][Nphe][Nphe]-NH2)
- E. coli MIC ([1]; ATCC 35218): 6.3 µM
- CC50 at 3 h [2]: 11 µM
- ID50 [3]: 11 µM

SMILES: C[C@@H](c1ccccc1)N(CC(N)=O)C(=O)CN(CCCCN)C(=O)CN(CCCCN)C(=O)CN(C(=O)CN(C(=O)CN(CCCCN)C(=O)CN(C(=O)CN(CCCCN)C(=O)CN(CCCCN)C(=O)CN(C(=O)CN(C(=O)CNCCCCN)[C@@H](C)c1ccccc1)[C@@H](C)c1ccccc1)[C@@H](C)c1ccccc1)[C@@H](C)c1ccccc1)[C@@H](C)c1ccccc1 [1-Nlys5,11, H-(Nlys-Nspe-Nspe-Nlys-Nlys-Nspe)2-NH2] (H-[Nlys][Nspe][Nspe][Nlys][Nlys][Nspe][Nlys][Nspe][Nspe][Nlys][Nlys][Nspe]-NH2)
- HD10 [4]: >200/>200 μM
- HD50 [4]: >200/>200 μM
- MIC for B. subtilis ATCC 6633 ([5]; ATCC 6633): 0.78 µM
- E. coli MIC ([1]; ATCC 35218): 50 µM
- MIC for E. coli ATCC 35218 ([1]; ATCC 35218): 30 µM
- CC50 at 3 h [2]: 85 µM

SMILES: CC(C)[C@H](C)N(CC(N)=O)C(=O)CN(C(=O)CN(CCCCN)C(=O)CN(C(=O)CN(C(=O)CN(CCCCN)C(=O)CN(C(=O)CN(C(=O)CN(CCCCN)C(=O)CN(C(=O)CN(C(=O)CNCCCCN)[C@@H](C)C(C)C)[C@@H](C)C(C)C)[C@@H](C)C(C)C)[C@@H](C)C(C)C)[C@@H](C)C(C)C)[C@@H](C)C(C)C)[C@@H](C)C(C)C [1-Nsdpall, H-(Nlys-Nsdp-Nsdp)4-NH2]
- B. subtilis MIC ([5]; Table 6, B. subtilis ATCC 6633): 0.78 µM
- Selectivity ratio SR B. subtilis ([5]; Table 6, ratio of 10% hemolytic dose to B. subtilis MIC): 256
- E. coli MIC ([1]; Table 6, E. coli ATCC 35218): 25 µM
- Selectivity ratio SR E. coli ([1]; Table 6, ratio of 10% hemolytic dose to E. coli MIC): > 8
- CC50 at 3 h [2]: 64 µM

SMILES: CC[C@H](C)[C@H](NC(=O)CN)C(=O)NCC(=O)N[C@@H](C)C(=O)N[C@H](C(=O)N[C@@H](CC(C)C)C(=O)N[C@@H](CCCCN)C(=O)N[C@H](C(=O)N[C@@H](CC(C)C)C(=O)N[C@H](C(=O)N[C@H](C(=O)NCC(=O)N[C@@H](CC(C)C)C(=O)N1CCC[C@H]1C(=O)N[C@@H](C)C(=O)N[C@@H](CC(C)C)C(=O)N[C@H](C(=O)N[C@@H](CO)C(=O)N[C@@H](Cc1c[nH]c2ccccc12)C(=O)N[C@H](C(=O)N[C@@H](CCCCN)C(=O)N[C@@H](CCCNC(=N)N)C(=O)N[C@@H](CCCCN)C(=O)N[C@@H](CCCNC(=N)N)C(=O)N[C@@H](CCC(N)=O)C(=O)N[C@@H](CCC(N)=O)C(N)=O)[C@@H](C)CC)[C@@H](C)CC)[C@@H](C)O)[C@@H](C)O)C(C)C)C(C)C [melittin, reference compound]
- HD50 ([4]; Table 8): 6 µM
- MIC for E. coli ATCC 35218 ([1]; Table 8, CAMHB): 12.5 µM
- SR ([1]; Table 8, calculated as HD10/E. coli MIC): 0.16
- % ACN at RP-HPLC elution [6]: 65.2 % ACN
